Measurements as given in US20050202511A1, “AMP-activated protein kinase (AMPK) inhibitor screening assay” (priority 2002, published 2005).
Where “and” joins values, the source holds several entries; their conditions need not be identical. Equal values may be shown once.

How the values were obtained:
Assay in all cases: Filter binding assay, GST-CBS domain fusion
AMPK-γ3 CBS1-4 = target: T1, AMPK-γ3 CBS1-4 (Homo sapiens, UniProt Q9UGI9); details: for Kd: two site Hill plot model, read-out: B0.5
T1 construct: Human γ3 (residues 197-479) was also used as a template for PCR; made in house; host or cells: E. coli BL21 (DE3)
T1 sequence (Q9UGI9 197-479): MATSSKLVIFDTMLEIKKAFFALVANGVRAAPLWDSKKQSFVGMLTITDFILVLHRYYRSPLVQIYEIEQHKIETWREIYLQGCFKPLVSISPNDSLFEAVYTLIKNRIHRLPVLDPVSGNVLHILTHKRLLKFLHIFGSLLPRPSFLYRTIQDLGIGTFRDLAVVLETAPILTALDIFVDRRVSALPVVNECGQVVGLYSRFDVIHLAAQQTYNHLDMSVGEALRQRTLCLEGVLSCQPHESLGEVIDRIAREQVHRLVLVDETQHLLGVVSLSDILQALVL
Source text: DNA fragments were produced encoding all four (CBS1-4), or the first two (CBS1-2), or the last two (CBS3-4) of the tandem CBS domains from the human AMPK γ2 subunit. DNAs were produced by the polymerase chain reaction (PCR) using the Stratagene Pfu Turbo PCR kit and a human γ2-encoding pcDNA3 plasmid as template. The following oligonucleotides were used as primers: (CBS1-4), 5′-CGCGGATCCGCGGTTCCAACCAGTTCAAAGCTTGTT-3′ (sense), 5′-CCGCTCGAGCGGCTCCGTTTCTGTCTCCTTTTGTTT-3′ (antisense); CBS1-2 (sense strand as CBS1-4), 5′-CCGCTCGAGCGGAAGCTGGAGGAACTTGAGGATTCT-3′ (antisense); CBS3-4: 5′-CGCGGATCCGCGATAGGAACGTACCACAACATTGCC-3′ (sense), 5′-CCGCTCGAGCGGGAGGATCAGGGCTTGCAGAATGTC-3′ (antisense). Human γ3 (residues 197-479) was also used as a template for PCR (14). The PCR products were subcloned into pGEX-KG as 5′-BamHI and 3′-XhoI restriction fragments for expression as glutathione-S-Transferase (GST) fusions in E. coli.
(§1) Various concentrations of [^14C]-AMP, [γ^32P] […] Reactions were stopped by spotting 10 ìl onto a Millipore MF Filter Membrane disc and rapidly washing under high vacuum with 1 ml of ice-cold TBS. Radioactivity was determined on the filters by scintillation counting. Non-specific binding (which was trivial) was determined by performing the assay with GST as a control, and was subtracted. […] Data were fitted to the binding models given in the text, using GraphPad Prism 3. Estimates of parameters resulting from fits are quoted in the text and Table 1±standard error, and the curves shown in figures are theoretical curves obtained using those estimates.

AMPK-γ2 CBS3-4 (R531G) = target: T2, AMPK-γ2 CBS3-4 (R531G) (Homo sapiens, UniProt Q9UGJ0, R531G); details: for Kd: single-site model
T2 construct: the C-terminal pair (CBS3-4, residues 430-556); made in house; host or cells: E. coli BL21 (DE3)
Method: Site-directed mutagenesis was also used to create a point mutation in CBS4 that causes hereditary heart disease (WPWS) (R531G).
as §1

AMPK-γ1 CBS1-4 = target: T3, AMPK-γ1 CBS1-4 (UniProt P80385); set-up: species or system rat; details: for Kd: two site Hill plot model, read-out: B0.5
T3 construct: B0.5; other: two site Hill plot model; h (Hill coefficient); fused on or other part: GST at the N-terminus (pGEX-KG, glycine spacer)
Method: The construct was expressed in E. coli and could be purified on glutathione-Sepharose as a soluble protein of the expected size (62 kDa) in good yield (3 mg/L of culture).
DNA encoding the CBS1-4 domains of the γ1 isoform was produced using PCR with a rat y1-encoding pcDNA3 plasmid as template. The primers used were: 5′-CGCGGATCCGCGATGGAGACGGTCATTTCTTCA-3′ (sense), 5′-CCGCTCGAGCGGGGGCTTCTTCTCTCCACCTGT-3′ (antisense). The PCR products was sub-cloned into pGEX-KG as above.
as §1

AMPK-γ2 CBS1-4 (T400N) = target: T4, AMPK-γ2 CBS1-4 (T400N) (Homo sapiens, UniProt Q9UGJ0, T400N); details: for Kd: two site Hill plot model, read-out: B0.5
T4 construct: all four CBS domains (CBS1-4, residues 274-569); made in house; host or cells: E. coli BL21 (DE3)
Method: (§2) With the H383R, T400N and R531G mutants there were large increases in B0.5 (6-, 8- and 10-fold) with no significant change in Hill coefficient.
as §1

AMPK-γ2 CBS1-4 (Lins) = target: T5, AMPK-γ2 CBS1-4 (Lins) (Homo sapiens, UniProt Q9UGJ0, INS350L); details: for Kd: two site Hill plot model, read-out: B0.5
T5 construct: fused on or other part: GST at the N-terminus followed by a hexaglycine spacer (pGEX-KG)
Method: as §2, §1

AMPK-γ2 CBS1-4 (R531G) = target: T6, AMPK-γ2 CBS1-4 (R531G) (Homo sapiens, UniProt Q9UGJ0, R531G); details: for Kd: two site Hill plot model, read-out: B0.5
T6 construct: all four CBS domains (CBS1-4, residues 274-569); made in house; host or cells: E. coli BL21 (DE3)
Method: as §2, §1

AMPK-γ2 CBS1-4 (R302Q) = target: T7, AMPK-γ2 CBS1-4 (R302Q) (Homo sapiens, UniProt Q9UGJ0, R302Q); details: for Kd: two site Hill plot model, read-out: B0.5
T7 construct: all four CBS domains (CBS1-4, residues 274-569); made in house; host or cells: E. coli BL21 (DE3)
Method: as §2, §1

AMPK-γ2 CBS1-4 (H383R) = target: T8, AMPK-γ2 CBS1-4 (H383R) (Homo sapiens, UniProt Q9UGJ0, H383R); details: for Kd: two site Hill plot model, read-out: B0.5
T8 construct: all four CBS domains (CBS1-4, residues 274-569); made in house; host or cells: E. coli BL21 (DE3)
Method: as §2, §1

AMPK-γ2 CBS1-2 (R302Q) = target: T9, AMPK-γ2 CBS1-2 (R302Q) (Homo sapiens, UniProt Q9UGJ0, R302Q); details: for Kd: single-site model
T9 construct: the N-terminal pair (CBS1-2, residues 274-410); made in house; host or cells: E. coli BL21 (DE3)
Source text: Site-directed mutagenesis was used to create the point mutation in CBS1 that causes hereditary heart disease (R302Q).
The present inventors also used site-directed mutagenesis to create four of the mutations in CBS1-2 that cause WPWS, i.e. R302Q, H383R and T400N, and Lins (which inserts a leucine residue in the linker between CBS1 and CBS2).
as §1

T6 sequence (Q9UGJ0 274-569 R531G): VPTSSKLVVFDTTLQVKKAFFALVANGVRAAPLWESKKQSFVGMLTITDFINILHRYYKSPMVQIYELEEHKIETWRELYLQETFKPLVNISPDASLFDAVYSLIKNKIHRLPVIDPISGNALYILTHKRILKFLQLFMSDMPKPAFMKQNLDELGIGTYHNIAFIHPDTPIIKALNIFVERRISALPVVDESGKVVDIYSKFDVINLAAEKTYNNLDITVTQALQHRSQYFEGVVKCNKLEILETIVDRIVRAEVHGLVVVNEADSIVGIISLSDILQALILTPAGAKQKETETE
T7 sequence (Q9UGJ0 274-569 R302Q): as the sequence (Q9UGJ0 274-569 R531G) above, with R29Q, G258R counted along it
T9 sequence (Q9UGJ0 274-410 R302Q): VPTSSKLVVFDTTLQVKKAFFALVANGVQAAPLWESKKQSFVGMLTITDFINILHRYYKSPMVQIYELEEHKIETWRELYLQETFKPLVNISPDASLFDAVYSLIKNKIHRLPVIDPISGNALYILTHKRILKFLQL
T8 sequence (Q9UGJ0 274-569 H383R): as the sequence (Q9UGJ0 274-569 R531G) above, with H110R, G258R counted along it
T2 sequence (Q9UGJ0 430-556 R531G): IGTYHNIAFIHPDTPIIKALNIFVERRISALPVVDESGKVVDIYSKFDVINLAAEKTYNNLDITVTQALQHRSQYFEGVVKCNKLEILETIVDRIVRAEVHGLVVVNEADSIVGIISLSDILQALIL
T4 sequence (Q9UGJ0 274-569 T400N): as the sequence (Q9UGJ0 274-569 R531G) above, with T127N, G258R counted along it
T5 sequence (Q9UGJ0 with tags, fused parts or gaps INS350L): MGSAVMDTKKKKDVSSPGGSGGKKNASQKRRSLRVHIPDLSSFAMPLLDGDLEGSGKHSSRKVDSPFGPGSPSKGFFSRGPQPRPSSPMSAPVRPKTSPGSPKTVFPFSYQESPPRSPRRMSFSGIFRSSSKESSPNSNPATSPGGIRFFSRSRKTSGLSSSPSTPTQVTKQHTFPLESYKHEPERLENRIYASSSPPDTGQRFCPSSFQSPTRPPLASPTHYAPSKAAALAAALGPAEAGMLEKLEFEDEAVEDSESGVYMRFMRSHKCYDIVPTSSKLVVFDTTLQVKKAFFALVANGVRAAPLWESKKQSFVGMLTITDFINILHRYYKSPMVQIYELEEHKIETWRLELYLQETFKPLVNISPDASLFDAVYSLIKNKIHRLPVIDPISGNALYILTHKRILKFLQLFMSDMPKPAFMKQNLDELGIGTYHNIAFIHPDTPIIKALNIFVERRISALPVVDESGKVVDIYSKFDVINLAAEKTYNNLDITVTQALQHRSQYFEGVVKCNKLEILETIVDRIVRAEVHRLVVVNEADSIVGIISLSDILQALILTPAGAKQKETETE

h (Hill coefficient) (AMPK-γ3 CBS1-4)	Kd (AMPK-γ3 CBS1-4)	Kd (AMPK-γ2 CBS3-4 (R531G))	h (Hill coefficient) (AMPK-γ1 CBS1-4)	Kd (AMPK-γ1 CBS1-4)	h (Hill coefficient) (AMPK-γ2 CBS1-4 (T400N))	Kd (AMPK-γ2 CBS1-4 (T400N))	h (Hill coefficient) (AMPK-γ2 CBS1-4 (Lins))	Kd (AMPK-γ2 CBS1-4 (Lins))	h (Hill coefficient) (AMPK-γ2 CBS1-4 (R531G))	Kd (AMPK-γ2 CBS1-4 (R531G))	h (Hill coefficient) (AMPK-γ2 CBS1-4 (R302Q))	Kd (AMPK-γ2 CBS1-4 (R302Q))	h (Hill coefficient) (AMPK-γ2 CBS1-4 (H383R))	Kd (AMPK-γ2 CBS1-4 (H383R))	Kd (AMPK-γ2 CBS1-2 (R302Q))	SMILES	further results
2.2 ± 0.1	125 µM	1570 ± 110 µM	1.6±0.1 and 1.6 ± 0.2	20 ± 1 µM	1.8 ± 0.1	1360 ± 47 µM	1.8 ± 0.1	130 ± 4 µM	1.6 ± 0.2	2800 ± 220 µM	1.9 ± 0.2	158 ± 9 µM	1.8 ± 0.2	725 ± 36 µM	303 ± 42 µM	Nc1ncnc2c1ncn2[C@@H]1O[C@H](COP(=O)(O)O)[C@@H](O)[C@H]1O [AMP, adenosine monophosphate]	increase in Kd relative to wild type (AMPK-γ2 CBS3-4 (R531G)): 15 fold; increase in B0.5 relative to wild type (AMPK-γ2 CBS1-4 (T400N)): 22 fold; increase in B0.5 relative to wild type (AMPK-γ2 CBS1-4 (R531G)): 46 fold; change in B0.5 relative to wild type (AMPK-γ2 CBS1-4 (R302Q)): 2.6 fold; increase in B0.5 relative to wild type (AMPK-γ2 CBS1-4 (H383R)): 12 fold; increase in Kd relative to wild type (AMPK-γ2 CBS1-2 (R302Q)): 5.7 fold and 6 fold
1.5 ± 0.1	989 ± 58 µM	2050 ± 150 µM	1.9 ± 0.2	119 ± 7 µM	1.7 ± 0.2	2000 ± 160 µM	1.8 ± 0.2	335 ± 28 µM	2.7 ± 0.5	2550 ± 230 µM	1.3 and 1.3 ± 0.2	193 ± 25 µM	2.4 ± 0.2	1470 ± 55 µM	468 ± 86 µM	Nc1ncnc2c1ncn2[C@@H]1O[C@H](COP(=O)(O)OP(=O)(O)OP(=O)(O)O)[C@@H](O)[C@H]1O [ATP]	
